The target of assay [1] is T1, moesin FERM domain (Homo sapiens, UniProt P26038).
T1 construct: pGEX4T Moesin (P26038) FERM was a gift from Vijaya Ramesh (Addgene plasmid # 1163); GST (N, cleaved yes); made in house; host or cells: E. coli BL21(DE3)
Description: Direct binding FP in the presence of saturating concentration of unlabeled competing peptide. The procedure:
(§1) Synthetic peptides were obtained at 95% purity (GeneCust) and were dissolved in FP buffer (described earlier). To obtain direct binding saturation data, a dilution series of moesin FERM domain was prepared using the FP buffer, and then an equal volume of 10 nM FITC-labeled peptide was added to each sample. After mixing, the FP signals were recorded using SpectraMax iD5 (Molecular Devices). Data were analyzed with GraphPad Prism version 7.0.0 for MacOS (GraphPad Software, San Diego, California USA). A quadratic equation for equilibrium binding[37] was used to fit the obtained data. [drawing 1] where pept indicates the probe peptide concentration (5 nM), X indicates the protein concentration, the constant A being the signal amplitude divided by probe peptide concentration, and B is the plateau value. Direct binding experiments were performed and analyzed the same way in the presence of saturating concentration of unlabeled peptides.
We next explored the interplay between the F3a and F3b ligands by determining the affinity of FITC-labeled model peptides in the presence of high concentrations of the competing ligands (Figure 6A,B). […] The asymmetric competition could potentially be explained by an allosteric model where binding to the F3a site induces a conformational change of the protein that reduces the affinity for F3b ligands.

Assay [2] addresses T1, moesin FERM domain. The assay can be described thus: Direct binding fluorescence polarization (FP) assay, FITC-labeled probe peptides. The following applies: FITC-labeled probe peptide 5 nM titrated with FERM domain, 20 mM HEPES pH 7.4, 150 mM NaCl, 0.05% Tween-20, 3 mM DTT, quadratic 1:1 fit, n = 3 technical repeats. The method, then:
(§2) For fluorescence polarization (FP) experiments of merlin FERM, the GST tag was removed using HRV3C protease by incubating the enzyme (100 units/10 mg protein) with protein overnight at 4 °C in the dialysis buffer (20 mM HEPES, pH 7.4, 150 mM NaCl, 0.05% Tween-20, and 3 mM DTT). The following day, the cleaved GST and the protease were removed using reverse Ni-IMAC, and the protein was concentrated to the working concentration. For FP experiments using moesin FERM, thrombin (Sigma) was used to cleave the GST tag from moesin FERM domain on GSH sepharose beads (Cytiva) and incubated overnight at 4 °C under gentle rotation. Next day, the beads were collected by gentle centrifugation, while the supernatant containing thrombin and moesin FERM domain was passed through a HiTrap benzamidine column (Cytiva). The protein was then eluted using a high salt (0.7–1 M NaCl) concentration. The buffer was then exchanged using the PD-10 desalting column (Cytiva) into FP buffer (20 mM HEPES, pH 7.4, 150 mM NaCl, 0.05% Tween-20, and 3 mM DTT).
as §1
(In fluorescence polarisation assays a small probe gives low polarisation when free and higher when bound to something large.)

The target of assay [3] is T1, moesin FERM domain. Description: Competitive FP assay, unlabeled peptide outcompetes FITC-labeled probe. It is filed as binding. The procedure:
(§3) 25 μL of this premix was added to 25 μL of titrated target peptide. FP signals were determined as described earlier. […] All measurements were performed at least in triplicates.

A further assay deals with T2, moesin FERM M285A/H288A (Homo sapiens, UniProt P26038, H288A/M285A).
T2 construct: we generated a mutant moesin FERM domain (M285A and H288A); GST (N, cleaved yes); made in house; host or cells: E. coli BL21(DE3)
T2 sequence (P26038 2-295 M285A/H288A limits assumed): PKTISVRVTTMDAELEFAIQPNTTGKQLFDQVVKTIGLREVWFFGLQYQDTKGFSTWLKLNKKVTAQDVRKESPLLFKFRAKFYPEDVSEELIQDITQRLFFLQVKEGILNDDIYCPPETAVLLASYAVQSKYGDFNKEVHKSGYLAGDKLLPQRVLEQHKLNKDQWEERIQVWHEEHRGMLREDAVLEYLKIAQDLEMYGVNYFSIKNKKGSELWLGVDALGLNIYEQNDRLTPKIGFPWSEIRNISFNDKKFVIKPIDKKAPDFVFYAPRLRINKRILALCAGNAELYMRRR
Description: Direct binding FP assay with F3b-site mutant. The following applies: direct binding of FITC-labeled probe; Table S7. The text has this:
Synthetic genes encoding for human merlin FERM (P35240; amino acids 22–312) and radixin FERM (P35241; 5–295) domains were commercially synthesized (ThermoFisher) and cloned into pETM33 using NcoI and EcoRI restriction sites. pGEX4T Moesin (P26038) FERM was a gift from Vijaya Ramesh (Addgene plasmid # 1163[27]). pGEX4T1 Ezrin (P15311) FERM domain was a kind gift from Volker Gerke.[28] Human NOP53-HA-pcDNA was a kind gift from Ronit Sarid.[29] The NOP53 gene was polymerase chain reaction (PCR)-amplified and cloned into CMV10 using HindIII and EcoRI. RRBP1-GFP was kindly provided by Alexander F. Palazzo.[30] HA-HIF1-alpha-pcDNA3 was a gift from William Kaelin (Addgene plasmid # 18949[31]). pcDNA3 LATS1 was a gift from Erich Nigg (Addgene plasmid # 41156[32]). […]
Synthetic peptides were obtained at 95% purity (GeneCust) and were dissolved in FP buffer (described earlier). […] After mixing, the FP signals were recorded using SpectraMax iD5 (Molecular Devices). Data were analyzed with GraphPad Prism version 7.0.0 for MacOS (GraphPad Software, San Diego, California USA). […] Direct binding experiments were performed and analyzed the same way in the presence of saturating concentration of unlabeled peptides.
To validate the models on the receptor side, we generated a mutant moesin FERM domain (M285A and H288A) and determined the effect on the affinity. […]

The target in the next assay is T3, radixin FERM domain (Homo sapiens, UniProt P35241).
T3 construct: radixin FERM (P35241; 5–295) domains were commercially synthesized; His-GST (N); made in house; host or cells: E. coli BL21(DE3)
T3 sequence (P35241 5-295): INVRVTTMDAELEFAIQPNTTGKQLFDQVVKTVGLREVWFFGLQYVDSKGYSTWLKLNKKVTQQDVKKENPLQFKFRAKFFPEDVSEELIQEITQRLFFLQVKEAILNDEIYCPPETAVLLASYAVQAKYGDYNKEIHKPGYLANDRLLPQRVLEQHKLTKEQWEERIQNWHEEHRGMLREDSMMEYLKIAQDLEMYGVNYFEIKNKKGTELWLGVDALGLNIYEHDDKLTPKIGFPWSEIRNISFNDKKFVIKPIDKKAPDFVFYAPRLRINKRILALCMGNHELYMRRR
Description: Competitive FP assay, unlabeled peptide outcompetes FITC-labeled probe. The assay is classed as binding. As to conditions: competition FP, unlabeled peptide vs FITC-KIRREL3 probe; at least triplicates. The procedure:
as §3

In the next assay the target is T4, merlin FERM domain (Homo sapiens, UniProt P35240).
T4 construct: human merlin FERM (P35240; amino acids 22–312); His-GST (N, cleaved yes); made in house; host or cells: E. coli BL21(DE3)
T4 sequence (P35240 22-312): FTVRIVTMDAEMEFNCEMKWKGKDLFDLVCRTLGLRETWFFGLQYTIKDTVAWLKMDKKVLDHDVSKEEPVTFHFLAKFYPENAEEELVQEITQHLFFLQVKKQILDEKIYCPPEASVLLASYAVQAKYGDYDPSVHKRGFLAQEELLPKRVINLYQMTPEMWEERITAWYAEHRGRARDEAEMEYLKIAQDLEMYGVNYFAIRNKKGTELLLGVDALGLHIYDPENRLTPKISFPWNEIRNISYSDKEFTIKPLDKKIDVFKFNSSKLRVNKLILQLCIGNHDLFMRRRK
The assay can be described thus: Direct binding fluorescence polarization (FP) assay, FITC-labeled probe peptides. As to conditions: FITC-labeled probe peptide 5 nM titrated with FERM domain, 20 mM HEPES pH 7.4, 150 mM NaCl, 0.05% Tween-20, 3 mM DTT, quadratic 1:1 fit, n = 3 technical repeats, N.B. within the concentration range tested. The procedure: as §2, §1

Where [4] appears, read: direct binding FP in presence of excess unlabeled KIRREL3 (80 μM), Figure 6E, read-out: KD of FITC-labeled probe for moesin FERM, saturating peptide KIRREL3.
Where [5] appears, read: direct binding FP in presence of excess unlabeled TBX4 (80 μM), Figure 6F, read-out: KD of FITC-labeled probe for moesin FERM, saturating peptide TBX4.
Where [6] appears, read: moesin FERM, unlabeled peptide at about 100 times KD (80–150 μM).
Where [7] appears, read: competitive FP using WT FITC-labeled ZNF622 as probe, Figure 5D, read-out: KD' (moesin FERM, ZNF622 peptide variants).
The mark [8] stands for this setting: competitive FP using FITC-KIRREL3_637–652 as probe, Figure 4G, read-out: KD' (moesin FERM, KIRREL3 and TBX4 peptide variants).

Usually Kd stands for the concentration at which binding is half-saturated.

No end group written: not given here.

T1 sequence (P26038 2-295 limits assumed): as the sequence (P26038 2-295 M285A/H288A limits assumed) above, with A284M, A287H counted along it

Consider “APQMDWSKKNELFSNL [EBP50_343–358, reference compound]”, for which the results for the Kd on moesin FERM domain [1] (setting [4]), on moesin FERM domain [1] (setting [5]) and at moesin FERM domain [2] were 3300 ± 200 nM, 3400 ± 200 nM and 3000 ± 300 nM, respectively.
As to FYELAHQLPLPHNVSS [HIF1A37–52], at moesin FERM domain [3] (competition FP, determined using FITC-ZNF622 as the probe peptide (footnote b), read-out: moesin KD′), the dissociation constant (Kd) stood at 3000 ± 400 nM.
Regarding ITGSYSVSESPFFSPI [MISP595–610], at moesin FERM domain [3] (read-out: moesin KD′), the Kd was determined as 2300 ± 100 nM.
Regarding “KIRREL3_634–652: unlabeled F3b ligand used at 80 μM as saturating competitor; residue range as printed (TNGYYSVNTFKEHHSTPTI)”, in the assay with moesin FERM domain [1] (setting [6]), the “effect of excess unlabeled peptide on binding of FITC-EBP50 / FITC-ZNF622 to the F3a site” value is reported as “not binding” and the “effect of excess unlabeled peptide on binding of FITC-KIRREL3 / FITC-TBX4 to the F3b site” value was “blocked binding”.
For LEAADFYDFRSSYPDH, the Kd on moesin FERM domain [3] (setting [7]) was determined as 2300 ± 100 nM.
Still for that read-out and setting: in the case of LEFADAYDFRSSYPDH it was 85000 ± 2000 nM; in that of LEFADFYAFRSSYPDH, 50000 ± 2000 nM; in that of LEFADFYDFRSSAPDH, 2800 ± 100 nM.
On to LEFADFYDFRSSYPDH [ZNF622_341–356], for which the dissociation constant (Kd) at moesin FERM M285A/H288A is 1300 ± 100 nM; on moesin FERM domain [1] (setting [4]) it was 1400 ± 100 nM; at moesin FERM domain [1] (setting [5]) it was 1300 ± 200 nM; at moesin FERM domain [2], 1000 ± 100 nM; at moesin FERM domain [3] (setting [7]) it was 1400 ± 100 nM.
The substance LYTLPDDSTHQLLQPH [BOC1000–1015] displayed a Kd at radixin FERM domain of 17 ± 2 µM.
As to SYSVQTMETVPYQPFP [TBX4_428–443], the “KD, merlin FERM domain” value on merlin FERM domain is “N.B”. Further, on moesin FERM domain [3] (setting [8]), the dissociation constant Kd came out at 1000 ± 100 nM.
For “THHKALQEIRNSLLPF [LATS1_73–88, reference compound]”, the figures for the dissociation constant (Kd) at moesin FERM M285A/H288A and on moesin FERM domain [2] were 1300 ± 100 nM and 1000 ± 100 nM, respectively.
With TNGAYSVNTFKEHHST, the dissociation constant Kd at moesin FERM domain [3] (setting [8]) was 110 ± 10 nM.
With TNGYASVNTFKEHHST, the Kd at moesin FERM domain [3] (setting [8]) was found to be 58000 ± 5000 nM.
With TNGYYSANTFKEHHST, at moesin FERM domain [3] (setting [8]), the Kd stood at 50000 ± 6000 nM.
Turning to TNGYYSVNTFKEHHST, the dissociation constant Kd on moesin FERM domain [3] (setting [8]) worked out at 100 ± 10 nM.
For the substance YYSVNTFKEHHSTPTI [KIRREL3_637–652], the “KD, merlin FERM domain” value at merlin FERM domain is “N.B”.
